Measured values taken from patent US8697127B2, “Method for preparing microspheres and microspheres produced thereby” (Ewha University-Industry Collaboration Foundation, priority 2008, dated 2014).
Values belong to the molecule of their own block, whether it stands above or below them.

What was measured:
[1] = Anastrazole encapsulation ratio of PLGA microparticles (HPLC); format: physicochemical; conditions: PLGA 7E/0.15 g + 4A 0.1 g; 60 mg of anastrazole; Ethyl formate; 6 mL of 10 M NaOH
[2] = HPLC chromatogram analysis of anastrazole for decomposition or modification products; format: physicochemical; conditions: ethyl acetate/PLGA (75:25)/NaOH; encapsulated in the microparticles and then recovered; HPLC chromatograms
Description: In order to indirectly estimate whether decomposition or modification products of anastrazole are produced during the preparation of microparticles using ethyl acetate/PLGA (75:25)/NaOH as in Example <8-1>, various samples were prepared (as in Example <8-1>) and their chromatograms were analyzed.

[3] = Anastrazole encapsulation ratio of PLGA microparticles (HPLC); format: physicochemical; conditions: 60 mg of anastrazole
Description: Each of 7E, 4A and 2A polymers was dissolved in 4 mL of ethyl acetate. Then, 60 mg of anastrazole was dissolved to prepare a dispersed phase. The solution was added to 40 mL of 0.5% PVA aqueous solution and stirred. 5 mL of 10 M NaOH was added to the resultant o/w emulsion. After adding 40 mL of distilled water and stirring, microparticles were recovered by filtration. The microparticles were redispersed in 16 mL of 0.5% PVA aqueous solution. After adding distilled water to make 80 mL, the solution was stirred. After filtration, the microparticles were dried overnight in a vacuum dryer.
Similarly, microparticles encapsulating progesterone were prepared using ethyl formate instead of ethyl acetate and using 6 mL of 10 M NaOH.
Some of the microparticles prepared in Example <8-1> were accurately weighed and dissolved in 4 mL of tetrahydrofuran. After diluting 6 times with 50% acetonitrile, the solution was filtered using a 0.45 μm syringe filter to remove the PLGA precipitate. Some of the filtrate (20 μl) was subjected to HPLC (Shimadzu LC-20AD, Luna 5 m C18(2) column) for measurement of anastrazole concentration. Drug encapsulation ratio (%) was calculated using the equations given in Example <7-2>.

[4] = Aripiprazole encapsulation ratio of PLGA microparticles (HPLC); format: physicochemical; conditions: PLGA 4A/0.25 g; 60 mg of aripiprazole; Ethyl formate; 5 mL of 8 M NaOH
Description: (§1) 0.25 g of 4A was dissolved in 4 mL of ethyl formate. Then, 60 mg of aripiprazole was dissolved to prepare a dispersed phase. The solution was added to 40 mL of 0.5% PVA aqueous solution and stirred. After adding 5 mL of 8 M NaOH to the resultant o/w emulsion, followed by reaction for 30 minutes, 40 mL of distilled water was further added and, after stirring, microparticles were recovered by filtration. The microparticles were redispersed in 16 mL of 0.5% PVA aqueous solution. After adding distilled water to make 80 mL, the solution was stirred. After filtration, the microparticles were dried overnight in a vacuum dryer.
(§2) Some of the microparticles including aripiprazole were accurately weighed and dissolved in 4 mL of tetrahydrofuran. After diluting 6 times with ethanol, the solution was filtered to remove the PLGA precipitate. Some of the filtrate (20 μl) was subjected to HPLC (Shimadzu LC-20AD) for measurement of aripiprazole concentration. Drug encapsulation ratio (%) was calculated using the equations given in Example <7-2>.

[5] = Encapsulation ratio of docetaxel, piroxicam, rivastigmine or tolterodine in PLGA microparticles (HPLC); format: physicochemical; conditions: 0.25 g of 7E, 5 mL of 7 M NaOH
Description: Then, 0.25 g of 7E was dissolved to prepare a dispersed phase. The solution was added to 40 mL of 0.5% PVA aqueous solution and stirred. After adding 5 mL of 7 M NaOH to the resultant o/w emulsion, followed by reaction for 30 minutes, 40 mL of distilled water was further added and, after stirring, microparticles were recovered by filtration. The microparticles were redispersed in 16 mL of 0.5% PVA aqueous solution. After adding distilled water to make 80 mL, the solution was stirred. […] After diluting 6 times with ethanol, the solution was filtered to remove the PLGA precipitate.

[6] = background statement on organic solvents; cited from earlier work
[7] = Progesterone encapsulation ratio of PLGA microparticles (HPLC); format: physicochemical
Description: 0.25 g of 7E or 4A was dissolved in 4 mL of ethyl acetate. […] After stirring and filtration, microparticles were recovered. The microparticles were redispersed in 16 mL of 0.5% PVA solution and stirred, after adding distilled water to make 80 mL. […] Similarly, microparticles encapsulating progesterone were prepared using ethyl formate instead of ethyl acetate and using 6 mL of 10 M NaOH or 5 mL of 10 M HCl as a decomposition reagent. Some of the microparticles prepared in Example <7-1> were accurately weighed and dissolved in 4 mL of tetrahydrofuran. After diluting 6 times with methanol, the solution was filtered to remove the PLGA precipitate. Some of the filtrate (20 μl) was subjected to HPLC (Shimadzu LC-20AD, Luna 5 m C18(2) column) for measurement of progesterone concentration. Theoretical drug load (%) and actual drug load (%) were calculated from the following equations, and their ratio was defined as drug encapsulation ratio (%). Theoretical drug load (%)=(Weight of drug used (mg)/[Weight of PLGA used (mg)+Weight of drug used (mg)])×100 Actual drug load (%)=(Weight of drug encapsulated in microparticles (mg)/Weight of microparticles used for encapsulation ratio measurement (mg))×100 Drug encapsulation ratio (%)=(Actual drug load (%)/Theoretical drug load (%))×100 0.25 g of 7E was dissolved in 4 mL of isopropyl formate or propyl formate. […] After stirring and filtration, microparticles were recovered. The microparticles were redispersed in 16 mL of 0.5% PVA solution and stirred, after adding distilled water to make 80 mL. After filtration, the microparticles were in a vacuum dryer.

[8] = Thermogravimetric analysis of microparticles; format: physicochemical; conditions: up to 150° C.; isopropyl formate, 0.25 g of 7E and 250 mg of progesterone; 10° C./min, nitrogen
Description: The microparticles prepared in Example <7-3> (using isopropyl formate, 0.25 g of 7E and 250 mg of progesterone) and microparticles not including progesterone were analyzed using a thermogravimetric analyzer (TGA 2050). Nitrogen was used as a purge gas. Change in weight of the microparticles was automatically recorded while increasing temperature at a rate of 10° C./min.

[9] = Risperidone encapsulation ratio of PLGA microparticles (HPLC); format: physicochemical; conditions: PLGA 4A/0.25 g; 60 mg of risperidone; Ethyl formate; 5 mL of 8 M NaOH
Description: as §1, with “risperidone” for “aripiprazole”
as §2, with “risperidone” for “aripiprazole”

[10] = PLGA 2A/0.25 g, Ethyl acetate, 5 mL of 10 M NaOH
[11] = PLGA 4A/0.25 g, Ethyl acetate, 5 mL of 10 M NaOH
[12] = PLGA 7E/0.15 g + 4A 0.1 g, Ethyl formate, 6 mL of 10 M NaOH
[13] = PLGA 7E/0.15 g + 4A/0.1 g, Ethyl acetate, 5 mL of 10 M NaOH
[14] = 50 mg of docetaxel, Ethyl acetate
[15] = 50 mg of piroxicam, Ethyl formate
[16] = PLGA 4A/0.25 g, progesterone 60 mg, 10M NaOH 5 mL, ethyl acetate
[17] = PLGA 4A/0.25 g, progesterone 60 mg, 10M NaOH 6 mL, ethyl formate
[18] = PLGA 4A/0.25 g, progesterone 250 mg, 10M NaOH 5 mL, ethyl acetate
[19] = PLGA 4A/0.25 g, progesterone 250 mg, 10M NaOH 6 mL, ethyl formate
[20] = PLGA 7E/0.25 g, progesterone 60 mg, 10M HCl 5 mL, ethyl formate
[21] = PLGA 7E/0.25 g, progesterone 60 mg, 10M NaOH 5 mL, ethyl acetate
[22] = PLGA 7E/0.25 g, progesterone 60 mg, 10M NaOH 6 mL, ethyl formate
[23] = PLGA 7E/0.25 g, progesterone 100 mg, 10M HCl 5 mL, ethyl formate
[24] = PLGA 7E/0.25 g, progesterone 160 mg, 10M HCl 5 mL, ethyl formate
[25] = PLGA 7E/0.25 g, progesterone 200 mg, 10M HCl 5 mL, ethyl formate
[26] = PLGA 7E/0.25 g, progesterone 250 mg, 10M HCl 5 mL, ethyl formate
[27] = PLGA 7E/0.25 g, progesterone 250 mg, 10M NaOH 5 mL, ethyl acetate
[28] = PLGA 7E/0.25 g, progesterone 250 mg, 10M NaOH 6 mL, ethyl formate
[29] = 40 μl of rivastigmine, Ethyl acetate (table)
[30] = 40 mg of tolterodine, Ethyl formate

Encapsulation ratio (%) Batch 3 [1]: 65.5%
Encapsulation ratio (%) Batch 1 [3, 10]: 78.5%
Encapsulation ratio (%) Batch 2 [3, 10]: 75.2%
Encapsulation ratio (%) Batch 3 [3, 10]: 73.7%
Encapsulation ratio (%) Batch 1 [3, 11]: 78.1%
Encapsulation ratio (%) Batch 2 [3, 11]: 74.9%
Encapsulation ratio (%) Batch 3 [3, 11]: 77.6%
Encapsulation ratio (%) Batch 1 [3, 12]: 60.8%
Encapsulation ratio (%) Batch 2 [3, 12]: 65.1%
Encapsulation ratio (%) Batch 1 [3, 13]: 75.3%
Encapsulation ratio (%) Batch 2 [3, 13]: 73.8%
Encapsulation ratio (%) Batch 3 [3, 13]: 74.7%
SMILES: CC(C)(C#N)c1cc(Cn2cncn2)cc(C(C)(C)C#N)c1 [anastrazole]
decomposition or modification products of anastrazole during the preparation of microparticles [2]: no decomposition or modification products of anastrazole are produced

Average encapsulation ratio of 3 batches [4]: 72.3±2.0%
Encapsulation ratio (%) Batch 1 [4]: 72.2%
Encapsulation ratio (%) Batch 2 [4]: 74.3%
Encapsulation ratio (%) Batch 3 [4]: 70.3%
SMILES: O=C1CCc2ccc(OCCCCN3CCN(c4cccc(Cl)c4Cl)CC3)cc2N1 [aripiprazole]

Encapsulation ratio (%) Batch 1 [5, 14]: 83.2%
Encapsulation ratio (%) Batch 2 [5, 14]: 80.2%
Encapsulation ratio (%) Batch 3 [5, 14]: 84.2%
SMILES: CC(=O)O[C@@]12CO[C@@H]1C[C@H](O)[C@@]1(C)C(=O)[C@H](O)C3=C(C)[C@@H](OC(=O)[C@H](O)[C@@H](NC(=O)OC(C)(C)C)c4ccccc4)C[C@@](O)([C@@H](OC(=O)c4ccccc4)[C@H]21)C3(C)C [docetaxel]

SMILES: CCOC(C)=O [ethyl acetate]
water solubility [6]: 8.7 % by weight

SMILES: ClCCl [methylene chloride]
water solubility [6]: 1.32 % by weight

Encapsulation ratio (%) Batch 1 [5, 15]: 76.2%
Encapsulation ratio (%) Batch 2 [5, 15]: 81.2%
Encapsulation ratio (%) Batch 3 [5, 15]: 79.2%
SMILES: CN1C(C(=O)Nc2ccccn2)=C(O)c2ccccc2S1(=O)=O [piroxicam]

Encapsulation ratio (%) Batch 1 [7, 16]: 90.5%
Encapsulation ratio (%) Batch 2 [7, 16]: 92.8%
Encapsulation ratio (%) Batch 3 [7, 16]: 95.3%
Encapsulation ratio (%) Batch 1 [7, 17]: 92.0%
Encapsulation ratio (%) Batch 2 [7, 17]: 93.3%
Encapsulation ratio (%) Batch 3 [7, 17]: 95.6%
Encapsulation ratio (%) Batch 1 [7, 18]: 93.2%
Encapsulation ratio (%) Batch 2 [7, 18]: 92.2%
Encapsulation ratio (%) Batch 3 [7, 18]: 98.5%
Encapsulation ratio (%) Batch 1 [7, 19]: 96.2%
Encapsulation ratio (%) Batch 2 [7, 19]: 93.2%
Encapsulation ratio (%) Batch 3 [7, 19]: 100.7%
Encapsulation ratio (%) Batch 1 [7, 20]: 84.1%
Encapsulation ratio (%) Batch 2 [7, 20]: 88.7%
Encapsulation ratio (%) Batch 3 [7, 20]: 86.1%
Encapsulation ratio (%) Batch 1 [7, 21]: 93.8%
Encapsulation ratio (%) Batch 2 [7, 21]: 92.3%
Encapsulation ratio (%) Batch 3 [7, 21]: 96.0%
Encapsulation ratio (%) Batch 1 [7, 22]: 93.9%
Encapsulation ratio (%) Batch 2 [7, 22]: 94.0%
Encapsulation ratio (%) Batch 3 [7, 22]: 91.6%
Encapsulation ratio (%) Batch 1 [7, 23]: 89.0%
Encapsulation ratio (%) Batch 2 [7, 23]: 92.8%
Encapsulation ratio (%) Batch 3 [7, 23]: 91.5%
Encapsulation ratio (%) Batch 1 [7, 24]: 98.9%
Encapsulation ratio (%) Batch 2 [7, 24]: 102.0%
Encapsulation ratio (%) Batch 3 [7, 24]: 96.9%
Encapsulation ratio (%) Batch 1 [7, 25]: 99.2%
Encapsulation ratio (%) Batch 2 [7, 25]: 102.0%
Encapsulation ratio (%) Batch 3 [7, 25]: 95.5%
Encapsulation ratio (%) Batch 1 [7, 26]: 101.0%
Encapsulation ratio (%) Batch 2 [7, 26]: 101.0%
Encapsulation ratio (%) Batch 3 [7, 26]: 99.6%
Encapsulation ratio (%) Batch 1 [7, 27]: 92.8%
Encapsulation ratio (%) Batch 2 [7, 27]: 92.0%
Encapsulation ratio (%) Batch 3 [7, 27]: 97.7%
Encapsulation ratio (%) Batch 1 [7, 28]: 95.5%
Encapsulation ratio (%) Batch 2 [7, 28]: 98.5%
Encapsulation ratio (%) Batch 3 [7, 28]: 99.7%
weight loss of the microparticles [8]: 0.75%
SMILES: CC(=O)[C@H]1CC[C@H]2[C@@H]3CCC4=CC(=O)CC[C@]4(C)[C@H]3CC[C@]12C [progesterone]

SMILES: Cc1nc2n(c(=O)c1CCN1CCC(c3noc4cc(F)ccc34)CC1)CCCC2 [risperidone]
Average encapsulation ratio of 3 batches [9]: 75.0±1.4%
Encapsulation ratio (%) Batch 1 [9]: 75.2%
Encapsulation ratio (%) Batch 2 [9]: 73.6%
Encapsulation ratio (%) Batch 3 [9]: 76.3%

SMILES: CCN(C)C(=O)Oc1cccc([C@H](C)N(C)C)c1 [rivastigmine]
Encapsulation ratio (%) Batch 1 [5, 29]: 74.2%
Encapsulation ratio (%) Batch 2 [5, 29]: 79.2%
Encapsulation ratio (%) Batch 3 [5, 29]: 78.1%

SMILES: Cc1ccc(O)c([C@H](CCN(C(C)C)C(C)C)c2ccccc2)c1 [tolterodine]
Encapsulation ratio (%) Batch 1 [5, 30]: 70.3%
Encapsulation ratio (%) Batch 2 [5, 30]: 77.3%
Encapsulation ratio (%) Batch 3 [5, 30]: 73.2%
